Key:
Test in all cases: Kinase inhibitory activity profiling of RI-962@10 µM (406 kinases, Eurofins)
Assay type in all cases: biochemical
[1] = target: panel of human kinases (kinase named in endpoint) (Homo sapiens, UniProt P53778); settings: 10 µM; read-out: Activity (%), SAPK3(h)
Method in brief: (§1)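 Radiometric filter-binding kinase assays: enzyme preincubated 15 min with compound in 8 mM MOPS pH 7.0, 0.2 mM EDTA, 250 μM peptide substrate, 10 mM magnesium acetate, 10 μM [γ-33P]-ATP. Reaction started with Mg/ATP, run 40 min at room temperature, stopped with phosphoric acid; 33P incorporation read by scintillation counting. Other kinases by similar protocols.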

[2] = target: panel of human kinases (kinase named in endpoint) (Homo sapiens, UniProt Q8N568); settings: 10 µM; read-out: Activity (%), DCAMKL2(h)
Method in brief: as §1

[3] = target: panel of human kinases (kinase named in endpoint) (Homo sapiens, UniProt Q9UQ07); settings: 10 µM; read-out: Activity (%), MOK(h)
Method in brief: as §1

[4] = target: panel of human kinases (kinase named in endpoint) (Homo sapiens, UniProt Q02750); settings: 10 µM; read-out: Activity (%), MEK1(h)
Method in brief: as §1

[5] = target: panel of human kinases (kinase named in endpoint) (Homo sapiens, UniProt P00533, L858R); settings: 10 µM; read-out: Activity (%), EGFR(L858R)(h)
Method in brief: as §1

[6] = target: panel of human kinases (kinase named in endpoint) (Homo sapiens, UniProt Q52WX2); settings: 10 µM; read-out: Activity (%), SBK1(h)
Chain of panel of human kinases (kinase named in endpoint) (Homo sapiens, UniProt Q52WX2) (Q52WX2 whole entry): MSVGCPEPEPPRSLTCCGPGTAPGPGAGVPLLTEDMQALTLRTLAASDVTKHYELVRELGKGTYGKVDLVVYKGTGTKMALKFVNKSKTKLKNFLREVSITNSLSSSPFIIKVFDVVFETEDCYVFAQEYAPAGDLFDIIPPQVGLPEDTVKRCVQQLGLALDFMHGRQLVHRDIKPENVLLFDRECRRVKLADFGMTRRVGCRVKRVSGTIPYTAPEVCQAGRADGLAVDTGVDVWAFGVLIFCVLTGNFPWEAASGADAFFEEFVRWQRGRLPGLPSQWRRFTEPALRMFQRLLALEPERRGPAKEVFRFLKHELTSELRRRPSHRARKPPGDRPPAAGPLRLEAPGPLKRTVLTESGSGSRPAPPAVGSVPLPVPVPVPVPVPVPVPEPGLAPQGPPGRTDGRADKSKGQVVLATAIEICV
Method in brief: as §1

[7] = target: panel of human kinases (kinase named in endpoint) (Homo sapiens, UniProt Q7KZI7); settings: 10 µM; read-out: Activity (%), PAR-1Bα(h)
Method in brief: as §1

[8] = target: panel of human kinases (kinase named in endpoint) (Homo sapiens, UniProt Q96BR1); settings: 10 µM; read-out: Activity (%), SGK3(h)
Method in brief: as §1

[9] = target: panel of human kinases (kinase named in endpoint) (Homo sapiens, UniProt Q9C098); settings: 10 µM; read-out: Activity (%), DCAMKL3(h)
Method in brief: as §1

[10] = target: panel of human kinases (kinase named in endpoint) (Homo sapiens, UniProt P49760); settings: 10 µM; read-out: Activity (%), CLK2(h)
Method in brief: as §1

[11] = target: panel of human kinases (kinase named in endpoint) (Homo sapiens, UniProt Q8IU85); settings: 10 µM; read-out: Activity (%), CaMKIδ(h)
Method in brief: as §1

[12] = target: panel of human kinases (kinase named in endpoint) (Homo sapiens, UniProt Q15349); settings: 10 µM; read-out: Activity (%), Rsk3(h)
Method in brief: as §1

[13] = target: panel of human kinases (kinase named in endpoint) (Homo sapiens, UniProt Q5MAI5); settings: 10 µM; read-out: Activity (%), CDKL4(h)
Method in brief: as §1

[14] = target: panel of human kinases (kinase named in endpoint) (Homo sapiens, UniProt Q8IWQ3); settings: 10 µM; read-out: Activity (%), BrSK2(h)
Method in brief: as §1

[15] = target: panel of human kinases (kinase named in endpoint) (Homo sapiens, UniProt P08581, D1228H); settings: 10 µM; read-out: Activity (%), Met(D1246H)(h)
Method in brief: as §1

[16] = target: panel of human kinases (kinase named in endpoint) (Homo sapiens, UniProt P36888); settings: 10 µM; read-out: Activity (%), Flt3(h)
Chain of panel of human kinases (kinase named in endpoint) (Homo sapiens, UniProt P36888) (P36888 27-993): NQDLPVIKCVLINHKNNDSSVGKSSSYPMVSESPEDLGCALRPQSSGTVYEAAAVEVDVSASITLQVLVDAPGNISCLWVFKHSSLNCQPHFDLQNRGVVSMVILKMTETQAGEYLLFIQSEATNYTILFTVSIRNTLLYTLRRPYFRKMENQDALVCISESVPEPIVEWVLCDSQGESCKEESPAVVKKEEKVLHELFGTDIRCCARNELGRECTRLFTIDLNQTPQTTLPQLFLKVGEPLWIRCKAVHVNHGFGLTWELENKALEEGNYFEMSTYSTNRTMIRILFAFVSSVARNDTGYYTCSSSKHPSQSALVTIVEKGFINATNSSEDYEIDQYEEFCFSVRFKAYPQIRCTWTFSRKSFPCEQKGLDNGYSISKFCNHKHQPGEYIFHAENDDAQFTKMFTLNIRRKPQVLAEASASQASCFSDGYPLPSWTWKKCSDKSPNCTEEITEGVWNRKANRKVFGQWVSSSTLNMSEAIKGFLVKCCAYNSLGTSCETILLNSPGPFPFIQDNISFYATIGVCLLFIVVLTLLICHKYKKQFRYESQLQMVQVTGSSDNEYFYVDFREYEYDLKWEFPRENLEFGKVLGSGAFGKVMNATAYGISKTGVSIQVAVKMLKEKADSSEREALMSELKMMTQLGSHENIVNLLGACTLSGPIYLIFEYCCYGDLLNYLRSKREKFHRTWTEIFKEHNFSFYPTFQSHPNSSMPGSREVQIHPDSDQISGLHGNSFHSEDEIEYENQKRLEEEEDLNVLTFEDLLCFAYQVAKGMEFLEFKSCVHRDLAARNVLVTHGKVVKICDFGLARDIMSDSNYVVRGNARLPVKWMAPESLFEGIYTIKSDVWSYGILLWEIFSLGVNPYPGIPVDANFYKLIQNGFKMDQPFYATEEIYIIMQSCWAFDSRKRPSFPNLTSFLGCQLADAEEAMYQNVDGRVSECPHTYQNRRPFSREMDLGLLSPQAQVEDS
Method in brief: as §1

[17] = target: panel of human kinases (kinase named in endpoint) (Homo sapiens, UniProt Q9HCP0); settings: 10 µM; read-out: Activity (%), CK1γ1(h)
Method in brief: as §1

[18] = target: panel of human kinases (kinase named in endpoint) (Homo sapiens, UniProt P16234); settings: 10 µM; read-out: Activity (%), PDGFRα(h)
Method in brief: as §1

[19] = target: panel of human kinases (kinase named in endpoint) (Homo sapiens, UniProt O75747); settings: 10 µM; read-out: Activity (%), PI3KC2g(h)
Method in brief: as §1

[20] = target: panel of human kinases (kinase named in endpoint) (Homo sapiens, UniProt Q6DT37); settings: 10 µM; read-out: Activity (%), MRCKγ(h)
Method in brief: as §1

[21] = target: panel of human kinases (kinase named in endpoint) (Homo sapiens, UniProt P05129); settings: 10 µM; read-out: Activity (%), PKCγ(h)
Method in brief: as §1

[22] = target: panel of human kinases (kinase named in endpoint) (Homo sapiens, UniProt Q13315); settings: 10 µM; read-out: Activity (%), ATM(h)
Chain of panel of human kinases (kinase named in endpoint) (Homo sapiens, UniProt Q13315) (Q13315 whole entry): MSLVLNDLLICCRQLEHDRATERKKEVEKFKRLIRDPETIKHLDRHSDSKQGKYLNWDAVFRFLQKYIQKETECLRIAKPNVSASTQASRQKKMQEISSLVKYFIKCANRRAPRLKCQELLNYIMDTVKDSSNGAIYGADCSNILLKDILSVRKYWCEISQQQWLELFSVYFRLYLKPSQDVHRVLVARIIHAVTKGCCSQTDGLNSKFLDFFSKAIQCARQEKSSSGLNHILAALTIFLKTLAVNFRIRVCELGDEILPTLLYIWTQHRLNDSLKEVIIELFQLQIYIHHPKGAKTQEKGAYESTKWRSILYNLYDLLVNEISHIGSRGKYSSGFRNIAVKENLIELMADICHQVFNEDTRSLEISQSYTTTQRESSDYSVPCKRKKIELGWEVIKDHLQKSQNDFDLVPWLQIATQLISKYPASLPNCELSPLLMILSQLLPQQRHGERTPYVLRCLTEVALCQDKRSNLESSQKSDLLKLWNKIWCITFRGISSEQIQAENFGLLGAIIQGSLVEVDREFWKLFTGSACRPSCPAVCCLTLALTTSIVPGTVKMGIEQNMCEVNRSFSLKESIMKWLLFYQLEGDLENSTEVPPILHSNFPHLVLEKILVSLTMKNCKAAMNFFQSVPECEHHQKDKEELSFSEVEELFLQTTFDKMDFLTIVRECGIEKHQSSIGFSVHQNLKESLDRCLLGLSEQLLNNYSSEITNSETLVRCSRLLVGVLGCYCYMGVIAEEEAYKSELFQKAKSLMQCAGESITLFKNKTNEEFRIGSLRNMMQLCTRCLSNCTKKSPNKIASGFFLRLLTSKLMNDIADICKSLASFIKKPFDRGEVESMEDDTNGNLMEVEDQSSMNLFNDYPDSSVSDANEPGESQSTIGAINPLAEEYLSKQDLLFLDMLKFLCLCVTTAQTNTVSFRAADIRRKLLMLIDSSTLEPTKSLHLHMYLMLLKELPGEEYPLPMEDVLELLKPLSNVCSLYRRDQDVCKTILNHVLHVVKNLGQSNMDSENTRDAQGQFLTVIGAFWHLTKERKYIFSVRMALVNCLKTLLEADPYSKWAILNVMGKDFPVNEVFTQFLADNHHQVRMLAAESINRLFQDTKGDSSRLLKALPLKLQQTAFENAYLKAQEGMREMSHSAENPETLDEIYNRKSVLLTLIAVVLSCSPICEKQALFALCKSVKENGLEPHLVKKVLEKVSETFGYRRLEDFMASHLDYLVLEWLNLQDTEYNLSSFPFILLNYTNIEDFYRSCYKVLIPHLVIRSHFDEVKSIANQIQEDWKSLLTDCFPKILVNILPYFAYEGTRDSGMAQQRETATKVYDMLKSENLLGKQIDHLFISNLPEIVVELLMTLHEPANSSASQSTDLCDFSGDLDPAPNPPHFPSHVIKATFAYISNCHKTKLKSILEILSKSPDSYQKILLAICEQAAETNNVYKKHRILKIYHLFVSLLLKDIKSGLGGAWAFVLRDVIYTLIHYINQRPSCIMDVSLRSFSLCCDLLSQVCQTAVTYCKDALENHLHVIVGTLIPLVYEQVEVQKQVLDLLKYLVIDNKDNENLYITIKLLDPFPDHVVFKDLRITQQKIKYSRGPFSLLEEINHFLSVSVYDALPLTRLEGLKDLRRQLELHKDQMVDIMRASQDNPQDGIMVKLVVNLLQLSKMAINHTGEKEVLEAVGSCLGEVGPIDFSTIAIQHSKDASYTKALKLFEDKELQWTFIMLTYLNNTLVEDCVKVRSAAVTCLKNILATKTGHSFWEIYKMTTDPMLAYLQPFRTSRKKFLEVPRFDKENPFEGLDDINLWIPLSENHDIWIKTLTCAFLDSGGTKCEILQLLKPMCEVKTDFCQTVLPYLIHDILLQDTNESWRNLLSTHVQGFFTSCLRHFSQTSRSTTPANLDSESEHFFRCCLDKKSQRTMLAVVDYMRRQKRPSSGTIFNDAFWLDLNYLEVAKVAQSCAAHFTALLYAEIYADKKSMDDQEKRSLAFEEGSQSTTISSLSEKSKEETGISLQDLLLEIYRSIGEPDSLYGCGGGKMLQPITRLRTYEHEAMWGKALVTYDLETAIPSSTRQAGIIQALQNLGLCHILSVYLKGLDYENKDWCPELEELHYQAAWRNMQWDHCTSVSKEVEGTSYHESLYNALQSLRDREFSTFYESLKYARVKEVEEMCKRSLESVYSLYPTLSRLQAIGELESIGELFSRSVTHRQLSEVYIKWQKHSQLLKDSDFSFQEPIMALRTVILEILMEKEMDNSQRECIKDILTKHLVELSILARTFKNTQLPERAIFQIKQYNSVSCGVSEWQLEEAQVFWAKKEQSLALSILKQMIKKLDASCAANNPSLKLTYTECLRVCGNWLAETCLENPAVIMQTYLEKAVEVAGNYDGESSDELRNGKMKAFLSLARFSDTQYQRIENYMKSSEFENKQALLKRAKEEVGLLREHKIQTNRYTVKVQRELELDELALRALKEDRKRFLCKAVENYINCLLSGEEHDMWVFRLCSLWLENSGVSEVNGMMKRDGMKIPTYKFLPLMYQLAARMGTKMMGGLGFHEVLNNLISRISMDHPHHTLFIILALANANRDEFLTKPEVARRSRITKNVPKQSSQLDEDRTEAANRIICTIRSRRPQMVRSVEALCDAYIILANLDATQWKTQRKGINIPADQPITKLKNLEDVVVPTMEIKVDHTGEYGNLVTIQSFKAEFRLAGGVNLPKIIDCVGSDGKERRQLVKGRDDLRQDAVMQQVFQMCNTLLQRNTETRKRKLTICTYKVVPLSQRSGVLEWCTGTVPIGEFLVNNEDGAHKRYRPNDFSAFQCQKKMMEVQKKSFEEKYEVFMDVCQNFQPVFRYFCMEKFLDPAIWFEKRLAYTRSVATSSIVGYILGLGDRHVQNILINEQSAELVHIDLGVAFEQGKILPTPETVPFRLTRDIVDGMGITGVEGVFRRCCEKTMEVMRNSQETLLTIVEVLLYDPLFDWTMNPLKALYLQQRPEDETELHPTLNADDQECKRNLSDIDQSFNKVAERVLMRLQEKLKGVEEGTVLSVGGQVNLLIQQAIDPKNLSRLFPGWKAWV
Method in brief: as §1

[23] = target: panel of human kinases (kinase named in endpoint) (Homo sapiens, UniProt P29317); settings: 10 µM; read-out: Activity (%), EphA2(h)
Method in brief: as §1

[24] = target: panel of human kinases (kinase named in endpoint) (Homo sapiens, UniProt Q9UQB9); settings: 10 µM; read-out: Activity (%), Aurora-C(h)
Chain of panel of human kinases (kinase named in endpoint) (Homo sapiens, UniProt Q9UQB9) (Q9UQB9 whole entry): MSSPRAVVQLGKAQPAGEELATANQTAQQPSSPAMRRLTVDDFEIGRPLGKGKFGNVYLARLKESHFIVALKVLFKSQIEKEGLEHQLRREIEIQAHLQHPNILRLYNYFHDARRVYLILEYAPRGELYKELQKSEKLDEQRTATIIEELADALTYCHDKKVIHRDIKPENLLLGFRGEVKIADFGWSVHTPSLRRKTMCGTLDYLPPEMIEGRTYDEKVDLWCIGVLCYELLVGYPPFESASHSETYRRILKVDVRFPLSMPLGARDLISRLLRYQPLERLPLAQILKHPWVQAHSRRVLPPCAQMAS
Method in brief: as §1

[25] = target: panel of human kinases (kinase named in endpoint) (Homo sapiens, UniProt Q02763, R849W); settings: 10 µM; read-out: Activity (%), Tie2(R849W)(h)
Method in brief: as §1

Chain of panel of human kinases (kinase named in endpoint) (Homo sapiens, UniProt P53778) (P53778 whole entry): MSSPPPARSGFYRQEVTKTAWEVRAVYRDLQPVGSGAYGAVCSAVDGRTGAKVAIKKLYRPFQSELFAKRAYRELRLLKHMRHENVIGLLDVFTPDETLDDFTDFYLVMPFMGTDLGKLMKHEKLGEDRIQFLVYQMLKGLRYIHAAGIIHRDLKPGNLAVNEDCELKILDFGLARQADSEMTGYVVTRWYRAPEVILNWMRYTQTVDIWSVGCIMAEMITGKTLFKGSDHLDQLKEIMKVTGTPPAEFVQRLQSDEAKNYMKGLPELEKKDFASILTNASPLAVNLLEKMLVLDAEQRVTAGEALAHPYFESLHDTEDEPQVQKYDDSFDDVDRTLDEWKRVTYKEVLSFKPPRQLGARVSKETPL

CC(C)C(=O)Nc1nc2cc(-c3ccc4c(c3)c(C(=O)NC(C)c3ccccc3)cn4C)ccn2n1 (stereo not shown) [RI-962]
activity at 10 µM [1]: 100% | activity at 10 µM [2]: 132% | activity at 10 µM [3]: 88% | activity at 10 µM [4]: 105% | activity at 10 µM [5]: 93% | activity at 10 µM [6]: 112% | activity at 10 µM [7]: 103% | activity at 10 µM [8]: 132% | activity at 10 µM [9]: 100% | activity at 10 µM [10]: 94% | activity at 10 µM [11]: 104% | activity at 10 µM [12]: 110% | activity at 10 µM [13]: 70% | activity at 10 µM [14]: 110% | activity at 10 µM [15]: 134% | activity at 10 µM [16]: 87% | activity at 10 µM [17]: 94% | activity at 10 µM [18]: 99% | activity at 10 µM [19]: 99% | activity at 10 µM [20]: 83% | activity at 10 µM [21]: 93% | activity at 10 µM [22]: 85% | activity at 10 µM [23]: 96% | activity at 10 µM [24]: 95% | activity at 10 µM [25]: 109%

Reference: publication PMC9653409, “Generative deep learning enables the discovery of a potent and selective RIPK1 inhibitor” (Nature Communications, 2022)
